Data published in PubChem BioAssay (NCI).
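Results reflect a 48-hour exposure of cells in 96-well plates to compound at five concentrations. GI50 = concentration required for 50% inhibition of growth. TGI: total growth inhibition.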

Assays:
Test in all cases: NCI anticancer screen, dose series, 48 h
UO-31 renal = system: UO-31 renal
HT29 colon = system: HT29 colon
DLD-1 colon = system: DLD-1 colon
DMS 114 small cell lung = system: DMS 114 small cell lung
CCRF-CEM leukemia = system: CCRF-CEM leukemia
LXFL 529 NSCLC = system: LXFL 529 NSCLC
HOP-18 NSCLC = system: HOP-18 NSCLC
K-562 leukemia = system: K-562 leukemia
DMS 273 small cell lung = system: DMS 273 small cell lung
MCF7 breast = system: MCF7 breast
BT-549 breast = system: BT-549 breast
MDA-MB-231 breast = system: MDA-MB-231 breast

Structure (SMILES)	TGI (UO-31 renal) [µM]	TGI (HT29 colon) [µM]	TGI (DLD-1 colon) [µM]	TGI (DMS 114 small cell lung) [µM]	TGI (CCRF-CEM leukemia) [µM]	TGI (LXFL 529 NSCLC) [µM]	TGI (HOP-18 NSCLC) [µM]	TGI (K-562 leukemia) [µM]	TGI (DMS 273 small cell lung) [µM]	GI50 (HT29 colon) [µM]	GI50 (CCRF-CEM leukemia) [µM]	GI50 (K-562 leukemia) [µM]	TGI (MCF7 breast) [µM]	TGI (BT-549 breast) [µM]	TGI (MDA-MB-231 breast) [µM]	GI50 (MCF7 breast) [µM]	GI50 (UO-31 renal) [µM]	GI50 (BT-549 breast) [µM]	GI50 (MDA-MB-231 breast) [µM]	GI50 (HOP-18 NSCLC) [µM]
COc1cccc(C2C(C(=O)O)=C(CO)Oc3cc4c(cc32)OCO4)c1 (stereo unspecified)	> 100	> 100	> 100	> 100	> 100	> 100	> 100	> 100												
COc1ccc2c(c1)O[C@H]1c3ccc(O)cc3OC[C@@H]21	72.6	> 100	> 100		65.8	80.3	> 100	> 100	> 100											
O=C(N1CCC(CN=c2cc3n(-c4ccc(Cl)cc4)c4ccccc4nc-3cc2Nc2ccc(Cl)cc2)CC1)N1CC1		0.547			1.15					0.204	0.253	0.286								
O=NNc1cnccn1	> 1250	> 1250	> 1250	> 1250	> 1250		> 1250	> 1250	> 1250				1240	> 1250	> 1250					
BrCCC[P+](c1ccccc1)(c1ccccc1)c1ccccc1	> 100	> 100			> 100			> 100					> 100	> 100	86					
CCN(CC)CCC(=O)c1ccccc1	93	70.2		41.8	36.9	32.1	30.1		33.5											
CCOC(=O)C1(C(=O)OCC)CSC1	> 100	> 100			> 100			> 100					> 100		> 100					
CCSc1nc(N2CCCCC2)c2cn[nH]c2n1	> 100	> 100			> 100			> 100		66.3	34.7	38	71.7	77.5	> 100	22.8	34	20.1	11.6	
CC(=O)NC(CCCCNC(=O)OC(C)(C)C)C(=O)O (stereo unspecified)	> 100	> 100			> 100			> 100					> 100		> 100					
COC(=O)C1=COC2OC3/C(=C\c4ccc(O)c(OC)c4)C(=O)OC34C=CC1C24 (stereo unspecified)	28.3	33.5	32.5	39.5	49.2	27.1		37.6	30											
CN(C)CS/C(N)=N\C(O)C(Cl)(Cl)Cl (stereo unspecified)	> 100	> 100			> 100			> 100						> 100	> 100					
Cn1c(=O)c2c(ncn2CCSS(=O)(=O)O)n(C)c1=O	> 100	> 100						> 100					> 100	> 100	> 100					
CC(=O)[O-].[Ni].c1ccc(/C(=N\Nc2ccccn2)c2ccccn2)cc1	18.8	23.8	32.7	3.36	44.3	16	> 100	28.1	25.5	0.056	0.0976		30.7	45.1	22.8	6.58			6.01	2.81
CC(=O)[O-].CC(=O)[O-].O=C(N/N=C/c1cc(Cl)cc(Cl)c1[OH2+])c1ccncc1.[Zn+2]	> 100				> 100			> 100												
c1ccc(SC(Sc2ccccc2)c2ccc3c(c2)OCO3)cc1	> 100	> 100			> 100			> 100						> 100	> 100					
CCOc1ccc(N=Nc2ccc3oc(=O)c(/C(C)=N\NC(=O)CC(=O)Nc4ccc(Cl)cc4)cc3c2)cc1	36.9		32	42	11.4	27		70.6	37.3											
O=C(O)c1cncc(C(=O)O)c1	> 100	> 100			> 100			> 100					> 100	> 100	> 100					
O=c1[nH]cc(N(CCCl)CCCl)c(=O)[nH]1	201	306	366	103	113	187	199	283	74.4				205	158	211					
C=C(CN(C)C)C(=O)c1cc(C)ccc1C	19.1	29.3	7.47	21.4	1.37	5.42	11.6	8.16	39.3				11.5	32.5	36.2					
